From patent publication US11034650B2, “Compounds useful for treating a Mannheimia haemolytica or Histophilus somni infection” (Intervet Inc., priority 2016, dated 2021) come the findings set out here.

What all share (assay type): cell-based
Assay [1] concerns Mannheimia haemolytica MH 6357 (M7/2, reference strain, cattle infection strain). Description: MIC, broth-microdilution (CLSI VET01-A4), strain MH 6357. As to conditions: Mannheimia haemolytica strain MH 6357, broth-microdilution; unit assumed. An outline of the steps:
(§1)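 Two-fold serial dilutions of each compound were prepared, bacteria were grown in them, and plates were then inspected visually. No turbidity at the lowest concentration defined the MIC.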

For assay [2], the system named is Mannheimia haemolytica MH 6374 (ATCC 33396, reference strain). The assay is described as follows: MIC, broth-microdilution (CLSI VET01-A4), strain MH 6374. To be noted: Mannheimia haemolytica strain MH 6374, broth-microdilution; unit assumed. An outline of the steps:
as §1

In assay [3] the test system is Mannheimia haemolytica MH 10720 (154, BRD field isolate). The assay is described as follows: MIC, broth-microdilution (CLSI VET01-A4), strain MH 10720. To be noted: Mannheimia haemolytica strain MH 10720, broth-microdilution; unit assumed. An outline of the steps: as §1
Assay [4] relates to Mannheimia haemolytica MH 12587 (1071, BRD field isolate, macrolide-resistance: erm+, E+). The assay is described as follows: MIC, broth-microdilution (CLSI VET01-A4), strain MH 12587. As to conditions: Mannheimia haemolytica strain MH 12587, broth-microdilution; unit assumed. An outline of the steps: as §1
Assay [5] relates to Mannheimia haemolytica MH 13065 (XB0446-6003.9, BRD field isolate). Description: MIC, broth-microdilution (CLSI VET01-A4), strain MH 13065. To be noted: Mannheimia haemolytica strain MH 13065, broth-microdilution; unit assumed. An outline of the steps: as §1
Assay [6] concerns Mannheimia haemolytica MH 13093 (XB0472-6014.1, BRD field isolate). The assay is described as follows: MIC, broth-microdilution (CLSI VET01-A4), strain MH 13093. As to conditions: Mannheimia haemolytica strain MH 13093, broth-microdilution; unit assumed. An outline of the steps: as §1
The subject of assay [7] is Pasteurella multocida PM 6267 (P 2225 (L386), reference strain, mouse infection strain). The assay is described as follows: MIC, broth-microdilution (CLSI VET01-A4), strain PM 6267. To be noted: Pasteurella multocida strain PM 6267, broth-microdilution; unit assumed. An outline of the steps: as §1
Assay [8] concerns Pasteurella multocida PM 6391 (ATCC 43137, reference strain). The assay is described as follows: MIC, broth-microdilution (CLSI VET01-A4), strain PM 6391. As to conditions: Pasteurella multocida strain PM 6391, broth-microdilution; unit assumed. An outline of the steps: as §1
The test system of assay [9] is Pasteurella multocida PM 10775 (080130003051, BRD field isolate). Description: MIC, broth-microdilution (CLSI VET01-A4), strain PM 10775. As to conditions: Pasteurella multocida strain PM 10775, broth-microdilution; unit assumed. An outline of the steps:
as §1

The subject of assay [10] is Pasteurella multocida PM 12080 (IV102277-0093, BRD field isolate). The assay is described as follows: MIC, broth-microdilution (CLSI VET01-A4), strain PM 12080. As to conditions: Pasteurella multocida strain PM 12080, broth-microdilution; unit assumed. An outline of the steps:
as §1

Molecules are shown by their SMILES. Values after ≈ are worked out from the molar mass of the structure shown.

Regarding `CON=C(C)[C@H](NC(=O)c1ccc(C#Cc2ccc(CNCc3nccs3)cc2)cc1)C(=O)NO` [Compound 395], the MIC MH 6357 in [1] was 0.4 µg/mL (≈ 0.814 µM). Also, in [2], the MIC MH 6374 stood at 0.8 µg/mL (≈ 1.63 µM). In addition, in assay [3], the MIC MH 10720 is 0.4 µg/mL (≈ 0.814 µM). In assay [4], this compound gave an MIC MH 12587 of 0.2 µg/mL (≈ 0.407 µM). Further, the MIC MH 13065 in assay [5] worked out at 0.8 µg/mL (≈ 1.63 µM). The MIC MH 13093 in assay [6] turned out to be 0.8 µg/mL (≈ 1.63 µM). Moreover, the MIC PM 6267 in [7] stood at 3.1 µg/mL (≈ 6.31 µM). In assay [8], the MIC PM 6391 was at most 0.1 µg/mL. This compound also displayed an MIC PM 10775 in assay [9] of 0.2 µg/mL (≈ 0.407 µM). Further, in [10], the MIC PM 12080 amounted to 0.2 µg/mL (≈ 0.407 µM).

Consider `CC(=O)[C@H](NC(=O)c1ccc(C#Cc2ccc(CNC3CC3)cc2)cc1)C(=O)NO` [Compound 396], for which, in [1], the MIC MH 6357 amounted to 1.6 µg/mL (≈ 3.95 µM). Also, in assay [2], the MIC MH 6374 came out at 1.6 µg/mL (≈ 3.95 µM). The compound further came in with an MIC MH 10720 in [3] of 1.6 µg/mL (≈ 3.95 µM). In assay [4], this compound gave an MIC MH 12587 of 0.4 µg/mL (≈ 0.987 µM). In [5], this compound returned an MIC MH 13065 of 3.1 µg/mL (≈ 7.65 µM). This compound also returned an MIC MH 13093 in [6] of 3.1 µg/mL (≈ 7.65 µM). Moreover, the MIC PM 6267 in assay [7] is 12.5 µg/mL (≈ 30.8 µM). In addition, the MIC PM 6391 in assay [8] is at most 0.1 µg/mL. Further, the MIC PM 10775 in [9] worked out at 0.8 µg/mL (≈ 1.97 µM). This compound returned an MIC PM 12080 in assay [10] of 0.4 µg/mL (≈ 0.987 µM).

On to `COCCNCc1ccc(C#Cc2ccc(C(=O)N[C@@H](C(C)=O)C(=O)NO)cc2)cc1` [Compound 398], for which the MIC MH 6357 in assay [1] was determined as 6.3 µg/mL (≈ 14.9 µM). The compound also had an MIC MH 6374 in assay [2] of 6.3 µg/mL (≈ 14.9 µM). The same compound gave an MIC MH 10720 in assay [3] of 6.3 µg/mL (≈ 14.9 µM). This compound also had an MIC MH 12587 in assay [4] of 1.6 µg/mL (≈ 3.78 µM). The MIC MH 13065 in assay [5] is 12.5 µg/mL (≈ 29.5 µM). The same compound registered an MIC MH 13093 in assay [6] of 25 µg/mL (≈ 59 µM). The MIC PM 6267 in assay [7] came out at 25 µg/mL (≈ 59 µM). The compound further yielded an MIC PM 6391 in assay [8] of 0.2 µg/mL (≈ 0.472 µM). In [9], this compound returned an MIC PM 10775 of 3.1 µg/mL (≈ 7.32 µM). The same compound registered an MIC PM 12080 in assay [10] of 1.6 µg/mL (≈ 3.78 µM).

In turn, `CC(=O)[C@H](NC(=O)c1ccc(C#Cc2ccc(CN3CCOCC3)cc2)cc1)C(=O)NO` [Compound 399] showed an MIC MH 6357 in [1] of 3.1 µg/mL (≈ 7.12 µM). Also, the MIC MH 6374 in assay [2] came out at 6.3 µg/mL (≈ 14.5 µM). The compound further came in with an MIC MH 10720 in assay [3] of 1.6 µg/mL (≈ 3.67 µM). The compound further displayed an MIC MH 12587 in [4] of 1.6 µg/mL (≈ 3.67 µM). The same compound yielded an MIC MH 13065 in assay [5] of 6.3 µg/mL (≈ 14.5 µM). In assay [6], the MIC MH 13093 stood at 6.3 µg/mL (≈ 14.5 µM). For the same compound, the MIC PM 6267 in [7] came out at 25 µg/mL (≈ 57.4 µM). Moreover, the MIC PM 6391 in assay [8] is at most 0.1 µg/mL. In assay [9], the MIC PM 10775 was found to be 0.8 µg/mL (≈ 1.84 µM). In assay [10], the MIC PM 12080 was 0.4 µg/mL (≈ 0.919 µM).

In assay [1], `CC(=O)C(NC(=O)c1ccc(C#Cc2ccc(CNCc3ccccc3)cc2)cc1)C(=O)NO` (centres unmarked) [Compound 400] returned an MIC MH 6357 of 0.8 µg/mL (≈ 1.76 µM). Moreover, the MIC MH 6374 in assay [2] is 1.6 µg/mL (≈ 3.51 µM). The MIC MH 10720 in assay [3] is 1.6 µg/mL (≈ 3.51 µM). Moreover, the MIC MH 12587 in assay [4] amounted to 0.2 µg/mL (≈ 0.439 µM). The MIC MH 13065 in assay [5] turned out to be 1.6 µg/mL (≈ 3.51 µM). For the same compound, in [6], the MIC MH 13093 was determined as 1.6 µg/mL (≈ 3.51 µM). In [7], this compound came in with an MIC PM 6267 of 3.1 µg/mL (≈ 6.81 µM). The same compound returned an MIC PM 6391 in assay [8] of at most 0.1 µg/mL. In [9], this compound showed an MIC PM 10775 of 0.8 µg/mL (≈ 1.76 µM). In assay [10], this compound came in with an MIC PM 12080 of 0.4 µg/mL (≈ 0.878 µM).

As to `COc1ccc(CNCc2ccc(C#Cc3ccc(C(=O)N[C@@H](C(C)=O)C(=O)NO)cc3)cc2)cc1` [Compound 401], the MIC MH 6357 in [1] came out at 1.6 µg/mL (≈ 3.3 µM). For the same compound, the MIC MH 6374 in assay [2] turned out to be 1.6 µg/mL (≈ 3.3 µM). This compound came in with an MIC MH 10720 in assay [3] of 3.1 µg/mL (≈ 6.38 µM). This compound also displayed an MIC MH 12587 in [4] of 0.4 µg/mL (≈ 0.824 µM). The same compound had an MIC MH 13065 in assay [5] of 1.6 µg/mL (≈ 3.3 µM). This compound also gave an MIC MH 13093 in assay [6] of 1.6 µg/mL (≈ 3.3 µM). In assay [7], this compound yielded an MIC PM 6267 of 6.3 µg/mL (≈ 13 µM). This compound also displayed an MIC PM 6391 in [8] of 0.2 µg/mL (≈ 0.412 µM). This compound also gave an MIC PM 10775 in assay [9] of 1.6 µg/mL (≈ 3.3 µM). The same compound showed an MIC PM 12080 in assay [10] of 0.8 µg/mL (≈ 1.65 µM).

Take `CC(=O)C(NC(=O)c1ccc(C#Cc2ccc(CNCc3ccncc3)cc2)cc1)C(=O)NO` (centres unmarked) [Compound 402]: the MIC MH 6357 in [1] was 6.3 µg/mL (≈ 13.8 µM). Besides, the MIC MH 6374 in assay [2] is 12.5 µg/mL (≈ 27.4 µM). In addition, the MIC MH 10720 in assay [3] stood at 6.3 µg/mL (≈ 13.8 µM). The MIC MH 12587 in assay [4] worked out at 1.6 µg/mL (≈ 3.5 µM). In assay [5], this compound displayed an MIC MH 13065 of 6.3 µg/mL (≈ 13.8 µM). In addition, the MIC MH 13093 in [6] is 6.3 µg/mL (≈ 13.8 µM). In assay [7], this compound had an MIC PM 6267 of 50 µg/mL (≈ 110 µM). In addition, the MIC PM 6391 in [8] stood at 0.8 µg/mL (≈ 1.75 µM). In addition, in [9], the MIC PM 10775 worked out at 3.1 µg/mL (≈ 6.79 µM). This compound also yielded an MIC PM 12080 in assay [10] of 1.6 µg/mL (≈ 3.5 µM).

For `CC(=O)C(NC(=O)c1ccc(C#Cc2ccc(CN3CCCC3)cc2)cc1)C(=O)NO` (centres unmarked) [Compound 403], the MIC MH 6357 in [1] worked out at 25 µg/mL (≈ 59.6 µM). In addition, the MIC MH 6374 in assay [2] worked out at 12.5 µg/mL (≈ 29.8 µM). Further, in [3], the MIC MH 10720 was found to be 12.5 µg/mL (≈ 29.8 µM). Besides, the MIC MH 12587 in [4] stood at 6.3 µg/mL (≈ 15 µM). Moreover, in assay [5], the MIC MH 13065 stood at 25 µg/mL (≈ 59.6 µM). This compound showed an MIC MH 13093 in assay [6] of 25 µg/mL (≈ 59.6 µM). The compound further displayed an MIC PM 6267 in assay [7] of 100 µg/mL (≈ 238 µM). In assay [8], this compound came in with an MIC PM 6391 of 0.8 µg/mL (≈ 1.91 µM). In assay [9], the MIC PM 10775 stood at 6.3 µg/mL (≈ 15 µM). This compound also registered an MIC PM 12080 in assay [10] of 3.1 µg/mL (≈ 7.39 µM).
